Where two headings read alike, the source gives them in different places. Positions of bridges follow the written chain, without caps; N, C: chain ends. Residues, ends and D or L forms follow the SMILES beside them.
Legend:
[1] = oil (octanol)/water partition coefficient; type: physicochemical; details: pH 7, preliminary experiments
[2] = tested on: primary ovarian cancer cells; details: High dose 5×10^-3 g/L, 48 h
Protocol: We utilized cDNA microarrays to observe the effect of ACFP on gene expression in primary ovarian cancer cells. Cells were treated with 0 (the vehicle group, as control), 5 × 10^6 g/L and 5 × 10^3 g/L ACFP, respectively, and cultured for 48 h at 37 °C in 5 % CO2. Cells were later digested and collected for total RNA extraction using Trizol. The RNA concentrations and purities were detected with a spectrophotometer. The experiments were performed in duplicate on a single total RNA preparation from the cells. Signal values were presented as the mean value of two replicate experiments. RNA samples were used to generate human whole genome expression profiling microarray (Yeli Bioscience Co., Ltd.; Shanghai, China). RNA was subsequently converted into digoxigenin-labeled complementary RNA and hybridized to a human genome microarray system (Human OneArray Microarray, from Phalanx Biotech Group, Taiwan). The chips were scanned by a GeeDom® LuxScan 10 K microarray scanner. LuxScan3.0 software was used to extract probe fluorescence signals and analyze images. Finally, the original data were processed by normalizing.

CC[C@H](C)[C@@H]1NC(=O)[C@H](CO)NC(=O)[C@@H]2CCCN2C(=O)[C@H](C)NC(=O)CNC(=O)[C@H](CC(C)C)NC(=O)[C@H](CCCCN)NC(=O)[C@H](CCCCN)NC(=O)[C@H](CCSC)NC(=O)[C@H](CCCNC(=N)N)NC(=O)[C@H](Cc2c[nH]c3ccccc23)NC(=O)[C@H](CCC(N)=O)NC(=O)[C@H](Cc2c[nH]c3ccccc23)NC(=O)[C@H](CCCNC(=N)N)NC(=O)[C@H](CCCNC(=N)N)NC(=O)[C@@H](NC(=O)[C@H](CCCCN)NC(=O)[C@@H](N)Cc2ccccc2)CSSC[C@@H](C(=O)N[C@H](C(=O)N[C@@H](CCCNC(=N)N)C(=O)N[C@@H](CCCNC(=N)N)C(=O)N[C@@H](C)C(=O)N[C@@H](Cc2ccccc2)C(=O)NCC(=O)NCC(=O)NCC(=O)NCC(=O)N[C@@H](CO)C(=O)N2CCC[C@H]2C(=O)NCC(=O)N2CCC[C@H]2C(=O)N[C@H](C(=O)N2CCC[C@H]2C(=O)N[C@@H](CC(N)=O)C(=O)O)[C@@H](C)CC)C(C)C)NC(=O)[C@H]([C@@H](C)O)NC1=O [ACFP] (H-FKCRRWQWRMKKLGAPSITCVRRAFGGGGSPGPIPN-OH; disulfide 3-20; N-terminus and C-terminus assumed)
logD [1]: -0.91 | GTF2IP1 Ratio (ACFP/control) ([2]; NM-002970): 0.24 | IGFBP5 Ratio (ACFP/control) ([2]; NM-003488): 0.23 | MYLK Ratio (ACFP/control) ([2]; NM-004638): 0.23 | NKX3-1 Ratio (ACFP/control) ([2]; NM-004824): 3.11 | PLA2G5 Ratio (ACFP/control) ([2]; NM-005322): 0.46 | POLH Ratio (ACFP/control) ([2]; NM-005429): 0.12 | PSMA1 Ratio (ACFP/control) ([2]; NM-005682): 0.49 | STAT5B Ratio (ACFP/control) ([2]; NM-006777): 2.03 | STAT6 Ratio (ACFP/control) ([2]; NM-006778): 10.8 | UPP1 Ratio (ACFP/control) ([2]; NM-007378): 0.42 | TNFSF18 Ratio (ACFP/control) ([2]; NM-008995): 0.41 | MAP4K4 Ratio (ACFP/control) ([2]; NM-009448): 0.41 | BTF/BCLAF1 Ratio (ACFP/control) ([2]; NM-009774): 2.79 | TMEFF1 Ratio (ACFP/control) ([2]; NM-016522): 7.91 | RAB18 Ratio (ACFP/control) ([2]; NM-022931): 0.25 | TCF/LEF1 Ratio (ACFP/control) ([2]; NM-051176): 0.35 | PINX1 Ratio (ACFP/control) ([2]; NM-054984): 0.47 | RINT-1 Ratio (ACFP/control) ([2]; NM-060561): 0.17 | C17orf37 Ratio (ACFP/control) ([2]; NM-084299): 0.38 | ZNF512 Ratio (ACFP/control) ([2]; NM-084450): 0.47 | AKT1 Ratio (ACFP/control) ([2]; NM_000207): 0.27 | ARHE Ratio (ACFP/control) ([2]; NM_000390): 3.39 | BAG1 Ratio (ACFP/control) ([2]; NM_000573): 0.33 | BAX Ratio (ACFP/control) ([2]; NM_000581): 6.35 | BCL-xl Ratio (ACFP/control) ([2]; NM_000598): 0.19 | C1QG Ratio (ACFP/control) ([2]; NM_000714): 2.68 | CASP3 Ratio (ACFP/control) ([2]; NM_000836): 5.34 | CCNB1 Ratio (ACFP/control) ([2]; NM_000891, cyclinB1): 0.21 | TNFRSF8 Ratio (ACFP/control) ([2]; NM_000943, first entry): 3.22 | TNFRSF8 Ratio (ACFP/control) ([2]; NM_000943, second entry): 3.22 | CDC25C Ratio (ACFP/control) ([2]; NM_000995): 0.32 | CDKN1A Ratio (ACFP/control) ([2]; NM_001026): 6.58 | CDKN1A/p21 Ratio (ACFP/control) ([2]; NM_001026, second entry): 3.58 | CKS2 Ratio (ACFP/control) ([2]; NM_001164): 8.95 | DVL1 Ratio (ACFP/control) ([2]; NM_001855): 2.46 | GRK4 Ratio (ACFP/control) ([2]; NM_002868): 0.37 | GRK5 Ratio (ACFP/control) ([2]; NM_002869): 0.47 | GRK6 Ratio (ACFP/control) ([2]; NM_002870): 0.26 | GSTM4 Ratio (ACFP/control) ([2]; NM_002948): 2.72 | GSTM5 Ratio (ACFP/control) ([2]; NM_002949): 4.84 | IRF7 Ratio (ACFP/control) ([2]; NM_003665): 4.50 | ITGA5 Ratio (ACFP/control) ([2]; NM_003678): 0.43 | PKIA Ratio (ACFP/control) ([2]; NM_005569): 2.74 | MAPK3/ERK1 Ratio (ACFP/control) ([2]; NM_005595): 0.35 | MAPK8/JNK1 Ratio (ACFP/control) ([2]; NM_005599): 2.74 | MAPK13/p38 delta Ratio (ACFP/control) ([2]; NM_005603): 3.04 | PSMB8 Ratio (ACFP/control) ([2]; NM_005696): 3.24 | TNFRSF1A Ratio (ACFP/control) ([2]; NM_007132, first entry): 2.15 | TNFRSF1A Ratio (ACFP/control) ([2]; NM_007132, second entry): 2.08 | ZNF12 Ratio (ACFP/control) ([2]; NM_007559): 3.66 | BAT5 Ratio (ACFP/control) ([2]; NM_007920): 7.48 | PABPN1 Ratio (ACFP/control) ([2]; NM_008106): 9.8 | TNFRSF10B Ratio (ACFP/control) ([2]; NM_008795): 4.85 | STK17B Ratio (ACFP/control) ([2]; NM_009262): 2.97 | TRAF4 Ratio (ACFP/control) ([2]; NM_009618): 3.62 | USP34 Ratio (ACFP/control) ([2]; NM_009736): 4.52 | GOLGA5 Ratio (ACFP/control) ([2]; NM_009950): 2.95 | SUI1 Ratio (ACFP/control) ([2]; NM_010209): 9.85 | SPINT2 Ratio (ACFP/control) ([2]; NM_010653): 10.25 | PIK3R5 Ratio (ACFP/control) ([2]; NM_023533): 0.44 | CARD10 Ratio (ACFP/control) ([2]; NM_029775): 4.32 | FLJ39616 Ratio (ACFP/control) ([2]; NM_051275): 2.53 | GNG12 Ratio (ACFP/control) ([2]; NM_055970): 8.30 | BCORL1 Ratio (ACFP/control) ([2]; NM_063035): 0.25 | CARD14 Ratio (ACFP/control) ([2]; NM_079092): 3.06 | BCL2L14 Ratio (ACFP/control) ([2]; NM_079370): 2.57 | FLJ13848 Ratio (ACFP/control) ([2]; NM_079829): 9.45 | SNARK Ratio (ACFP/control) ([2]; NM_081788): 3.11 | C1QTNF6 Ratio (ACFP/control) ([2]; NM_114904, first entry): 6.26 | C1QTNF6 Ratio (ACFP/control) ([2]; NM_114904, second entry): 6.26
